Data reported in publication PMC12578646, “Prodrug florfenicol amine is activated by intrinsic resistance to target Mycobacterium abscessus” (Nature Microbiology, 2025).
≈ marks a conversion by molar mass, not a printed value.

Columns and labels:
[1] = target: T1, Eis2 (Mycobacteroides abscessus, UniProt B1MKV6); test: Michaelis-Menten acetylation kinetics with purified Eis2, DTNB free-thiol assay (control substrate); assay type: biochemical
T1 construct: gene MAB_4532c; Eis2–pET30a, TEV cleavable N-terminal 6 histidine tag (removed)
T1 sequence (B1MKV6 entry or part of it): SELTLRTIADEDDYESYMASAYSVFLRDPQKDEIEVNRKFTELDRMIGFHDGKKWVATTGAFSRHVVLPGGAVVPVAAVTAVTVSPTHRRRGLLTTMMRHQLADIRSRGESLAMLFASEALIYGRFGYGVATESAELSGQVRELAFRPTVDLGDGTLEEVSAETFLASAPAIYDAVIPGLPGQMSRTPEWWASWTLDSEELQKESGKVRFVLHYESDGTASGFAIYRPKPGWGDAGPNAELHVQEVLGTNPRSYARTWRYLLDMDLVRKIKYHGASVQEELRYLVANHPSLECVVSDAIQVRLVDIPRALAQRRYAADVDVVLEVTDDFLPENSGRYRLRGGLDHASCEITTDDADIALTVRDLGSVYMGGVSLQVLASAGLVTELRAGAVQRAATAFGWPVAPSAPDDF

[2] = tested on: T2, M. abscessus WT; test: microbe, parasite or virus in culture; set-up: broth microdilution MIC according to CLSI, read at 14 days; conditions: Mycobacteroides abscessus, 336 h, read-out: WT MIC (µg/mL), day 14
T2 construct: ATCC 19977

[3] = in vitro; set-up: HepG2 cytotoxicity, Cell-Titer Glo; conditions: human, hepg2 cells; read-out: HepG2 Cytotoxicity IC50
Procedure: (§1) MPS and cytotoxicity of experimental compounds and PTC-targeting controls against HepG2 (liver hepatocellular carcinoma cells ATCC HB-8065) were performed as previously described without any modifications (see ref. [56] for MPS assay and ref. [78] for cytotoxicity assay). […] Results reported as mean ± s.d., n = 3 biological replicate. The requirement for FF-NH2 to be activated by Eis2 led us to hypothesize that it would lack the mitochondrial protein synthesis (MPS) inhibition liability of other PTC-targeting agents. We therefore profiled FF-NH2, FF-ac and other analogues for MPS inhibition activity.

[4] = tested on: HepG2 mitochondrial protein synthesis; test: cells; set-up: mitochondrial protein synthesis inhibition in HepG2 cells; conditions: Homo sapiens, read-out: MPS IC50
Procedure: as §1, with “MPS inhibition and cytotoxicity assays MPS and” for “MPS and”

[5] = target: T1, Eis2; test: Michaelis-Menten acetylation kinetics with purified Eis2, DTNB free-thiol assay; assay type: biochemical
[6] = tested on: NCC[C@H](O)C(=O)N[C@@H]1C[C@H](N)[C@@H](O[C@H]2O[C@H](CN)[C@@H](O)[C@H](O)[C@H]2O)[C@H](O)[C@H]1O[C@H]1O[C@H](CO)[C@@H](O)[C@H](N)[C@H]1O; test: purified protein, by the assay type; set-up: Eis2 acetyltransferase kinetics, Michaelis-Menten fit for substrate
From the text: Consistent with previous findings, the aminoglycoside controls AMK and [compound left out] were also shown as substrates of Eis2 (ref. [47]), as well as CAM-NH2 and TAM-NH2. […] These findings highlight how specific chemical modifications to antibiotics govern substrate specificity and antimicrobial efficacy.

Row | Compound | MIC [2] | CC50 at 72 h [3] | IC50 [4] | also measured
1 | NCC[C@H](O)C(=O)N[C@@H]1C[C@H](N)[C@@H](O[C@H]2O[C@H](CN)[C@@H](O)[C@H](O)[C@H]2O)[C@H](O)[C@H]1O[C@H]1O[C@H](CO)[C@@H](O)[C@H](N)[C@H]1O [AMK, amikacin] | 4 to 8 µg/mL (≈ 6.83 to 13.7 µM) | – | – | Michaelis-Menten acetylation kinetics with purified Eis2, DTNB free-thiol assay [1]: the aminoglycoside controls AMK and hygromycin B were also shown as substrates of Eis2
2 | CC[C@H]1OC(=O)[C@H](C)[C@@H](O[C@H]2C[C@@](C)(OC)[C@@H](O)[C@H](C)O2)[C@H](C)[C@@H](O[C@@H]2O[C@H](C)C[C@H](N(C)C)[C@H]2O)[C@](C)(O)C[C@@H](C)CN(C)[C@H](C)[C@@H](O)[C@]1(C)O [AZITH] | > 32 µg/mL | – | – | –
3 | N[C@H](CO)[C@H](O)c1ccc([N+](=O)[O-])cc1 [CAM-NH2, chloramphenicol amine] | – | > 200 µM | > 100 µM | –
4 | CC[C@H]1OC(=O)[C@H](C)[C@@H](O[C@H]2C[C@@](C)(OC)[C@@H](O)[C@H](C)O2)[C@H](C)[C@@H](O[C@@H]2O[C@H](C)C[C@H](N(C)C)[C@H]2O)[C@](C)(OC)C[C@@H](C)C(=O)[C@H](C)[C@@H](O)[C@]1(C)O [CLR] | 2 µg/mL (≈ 2.67 µM) | – | – | –
5 | O=C(N[C@H](CO)[C@H](O)c1ccc([N+](=O)[O-])cc1)C(Cl)Cl [Chloramphenicol] | – | > 200 µM | 5.5 ± 2.5 µM | –
6 | CC[C@H]1OC(=O)[C@H](C)[C@@H](O[C@H]2C[C@@](C)(OC)[C@@H](O)[C@H](C)O2)[C@H](C)[C@@H](O[C@@H]2O[C@H](C)C[C@H](N(C)C)[C@H]2O)[C@](C)(O)C[C@@H](C)C(=O)[C@H](C)[C@@H](O)[C@]1(C)O [ERY] | > 32 µg/mL | – | – | –
7 | CS(=O)(=O)c1ccc([C@@H](O)[C@H](N)CF)cc1 [FF-NH2, florfenicol amine] | 62.5 to 125 µg/mL (≈ 253 to 505 µM) | > 200 µM | > 100 µM | Michaelis-Menten acetylation kinetics with purified Eis2, DTNB free-thiol assay [5]: kcat/KM 6.7 × 10^3 ± 5.1 × 10^2
8 | CC(=O)N[C@H](CF)[C@H](O)c1ccc(S(C)(=O)=O)cc1 [FF-ac, florfenicol acetyl] | – | > 200 µM | 4.7 ± 1.7 µM | –
9 | CS(=O)(=O)c1ccc([C@@H](O)[C@@H](CF)NC(=O)C(Cl)Cl)cc1 [Florfenicol] | – | > 200 µM | 1.2 ± 0.2 µM | –
10 | CC(=O)NC[C@H]1CN(c2ccc(N3CCOCC3)c(F)c2)C(=O)O1 [LZD] | 8 µg/mL (≈ 23.7 µM) | – | – | –
11 | CC(=O)NC[C@H]1CN(c2ccc(N3CCOCC3)c(F)c2)C(=O)O1 [Linezolid] | – | > 200 µM | 6.2 ± 1.6 µM | –
12 | O=C1CN(/N=C/c2ccc([N+](=O)[O-])o2)C(=O)N1 [Nitrofurantoin, nitrofurantoin] | – | 6.8 ± 0.3 µM | – | –
13 | CN[C@@H]1[C@H](O)[C@H](NC)[C@H]2O[C@@]3(O)C(=O)C[C@@H](C)O[C@H]3O[C@@H]2[C@H]1O [SPC] | 512 µg/mL (≈ 1540 µM) | – | – | –
14 | CS(=O)(=O)c1ccc([C@@H](O)[C@H](N)CO)cc1 [TAM-NH2, thiamphenicol amine] | – | > 200 µM | > 100 µM | –
15 | CS(=O)(=O)c1ccc([C@@H](O)[C@@H](CO)NC(=O)C(Cl)Cl)cc1 [Thiamphenicol] | – | > 200 µM | 1.4 ± 0.7 µM | –
16 | CSc1ccc2c(c1)N(CCC1CCCCN1C)c1ccccc1S2 (stereo not shown) [Thioridazine, thioridazine] | – | 6.6 ± 0.3 µM | – | –
17 | Eis2 (Mycobacteroides abscessus ATCC 19977) | – | – | – | Km [6]: 232.6 ± 26 µM; Vmax [6]: 6 µM/min; kcat [6]: 4.7 ± 0.5 s⁻¹; kcat/Km [6]: 20000 ± 320 M⁻¹ s⁻¹
